According to patent publication US20240148762A1, “TOPICAL COMPOSITION CONTAINING CANNABINOIDS” (TF Holdings LLC, priority 2022, published 2024):

Assay: MTT assay of viability and metabolic activity of ex vivo human skin explants after topical application
Format: cell-based
Settings: ex vivo human skin explants (5 mm); ex vivo human skin 5 mm explants, 48 hours post treatment, 37° C., compared to the untreated skin control, n=3
Procedure: Sample 1 was tested to determine its toxicity and metabolic properties in comparison to a control and three commercial cleaning agents (irritants)— “SDS” (sodium dodecyl sulfate), Triton™ X-100, and Tween® 20. Human skin was obtained via post-surgical elective surgery under IRB protocol and prepared within 2 hours of surgery as 5 mm explants. The compositions were applied to the surface of the epidermis and incubated for 24 hours and 48 hours at 37° C. At each time point, explants were assessed for viability and metabolic activity via a MTT assay (n=3; mean+/−SEM), a colorimetric assay for assessing cell metabolic activity. […] The metabolic activity (viability) of tissues treated with Sample 1 remained above 50% at 48 hours post treatment compared to the untreated skin control, while those treated with Trition ° X-100 and SDS were <10% and are illustrated in the graph below that plots percent viability and time.

CCCCCCCCCCCCOS(=O)(=O)[O-].[Na+] [SDS, sodium dodecyl sulfate]
viability at 48 h: < 10%
